For 32 compounds, Ki results are on record in patent publication US10988459B2 (priority 2015, dated 2021).

Sequence of human RIP1 kinase domain (2-375) (Q13546 2-375): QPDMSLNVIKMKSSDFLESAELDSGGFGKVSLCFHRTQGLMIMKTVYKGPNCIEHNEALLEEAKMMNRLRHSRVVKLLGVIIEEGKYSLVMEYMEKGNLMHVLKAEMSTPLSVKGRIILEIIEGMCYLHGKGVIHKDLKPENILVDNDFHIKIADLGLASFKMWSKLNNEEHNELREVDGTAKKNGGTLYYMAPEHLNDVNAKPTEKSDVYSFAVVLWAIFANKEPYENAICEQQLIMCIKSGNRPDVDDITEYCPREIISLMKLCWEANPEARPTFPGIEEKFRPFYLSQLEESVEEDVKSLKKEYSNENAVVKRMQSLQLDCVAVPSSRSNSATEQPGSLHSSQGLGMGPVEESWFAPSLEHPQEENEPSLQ

For this test, the target named is human RIP1 kinase domain (2-375) (Homo sapiens (Human), UniProt Q13546). Briefly: biochemical. Type of test: biochemical. The conditions noted are these: tight-binding apparent inhibition constant; human RIP1 kinase domain (2-375) 50 nM, 50 uM ATP, 2 hours; read-out: Ki. In short, it runs like this:
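Ki^app comes from Morrison tight-binding fits of fractional activity versus compound concentration. Activity was read as ADP production, via tracer displacement lowering fluorescence polarization (633 nm laser). Conditions: 2 h, 50 nM insect-cell-expressed enzyme, 50 uM ATP, 30 mM MgCl2, 1 mM DTT, 0.5% DMSO, pH 7.5 Hepes.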
Take `Cc1cc2n(n1)CC[C@H](NC(=O)c1ncn(Cc3ccc(Cl)cc3Cl)n1)C(=O)N2C` [Example 473, 1-[(2,4-dichlorophenyl)methyl]-N-[(6S)-2,4-dimethyl-5-oxo-7,8-dihydro-6H-pyrazolo[1,5-a][1,3]diazepin-6-yl]-1,2,4-triazole-3-carboxamide]: the Ki worked out at 7.8 nM.

Regarding `Cc1cc2n(n1)CC[C@H](NC(=O)c1ncn(CC3CCCO3)n1)C(=O)N2C` (stereo partly drawn) [Example 474, N-(6S)-2,4-dimethyl-5-oxo-7,8-dihydro-6H-pyrazolo[1,5-a][1,3]diazepin-6-yl-1-(tetrahydrofuran-2-ylmethyl)-1,2,4-triazole-3-carboxamide], the Ki amounted to 1300 nM. As for `Cc1cc2n(n1)CC[C@H](NC(=O)c1ncn(CC3CCCOC3)n1)C(=O)N2C` (stereo partly drawn) [Example 475, N-(6S)-2,4-dimethyl-5-oxo-7,8-dihydro-6H-pyrazolo[1,5-a][1,3]diazepin-6-yl-1-(tetrahydropyran-3-ylmethyl)-1,2,4-triazole-3-carboxamide], the Ki is 360 nM. With `Cc1cc2n(n1)CC[C@H](NC(=O)c1ncn(CC3CCCCO3)n1)C(=O)N2C` (stereo partly drawn) [Example 476, N-(6S)-2,4-dimethyl-5-oxo-7,8-dihydro-6H-pyrazolo[1,5-a][1,3]diazepin-6-yl-1-(tetrahydropyran-2-ylmethyl)-1,2,4-triazole-3-carboxamide] the figure was 310 nM; with `CN1C(=O)[C@@H](NC(=O)c2ncn(CC3CCCCO3)n2)CCn2nc(C3CC3)cc21` (some centres unmarked) [Example 477], 290 nM. To `CN1C(=O)[C@@H](NC(=O)c2ncn(CC3CCCOC3)n2)CCn2nc(C3CC3)cc21` (some centres unmarked) [Example 478] belongs 290 nM; to `Cc1cc2n(n1)CC[C@H](NC(=O)c1ncn(CC3CCOC3)n1)C(=O)N2C` (stereo partly drawn) [Example 479, N-(6S)-2,4-dimethyl-5-oxo-7,8-dihydro-6H-pyrazolo[1,5-a][1,3]diazepin-6-yl-1-(tetrahydrofuran-3-ylmethyl)-1,2,4-triazole-3-carboxamide], 2800 nM. With `CN1C(=O)[C@@H](NC(=O)c2ncn(CC3CCOC3)n2)CCn2nc(C3CC3)cc21` (some centres unmarked) [Example 480] the figure was 2600 nM; with `O=C(N[C@H]1COc2cc(F)cc(F)c2NC1=O)c1ncc2c(n1)C1(CCCC1)OC2` [Example 481, N-[(3S)-6,8-difluoro-4-oxo-3,5-dihydro-2H-1,5-benzoxazepin-3-yl]spiro[5H-furo[3,4-d]pyrimidine-7,1′-cyclopentane]-2-carboxamide], 4.9 nM. Consider `CN1C(=O)[C@@H](NC(=O)c2ncc3c(n2)C2(CCCC2)OC3)COc2ccccc21` [Example 482], for which the Ki was found to be 5.7 nM.

Turning to `Cc1cc2n(n1)CC[C@H](NC(=O)c1ncn(C[C@H]3C[C@H](C(F)(F)F)C3)n1)C(=O)N2C` [Example 483], the Ki was 110 nM.

`Cc1cc2n(n1)CC[C@H](NC(=O)c1nnc(Cc3ccc(F)cc3)[nH]1)C(=O)N2C` [Example 484, 5-[(4-fluorophenyl)methyl]-N-(6S)-2,4-dimethyl-5-oxo-7,8-dihydro-6H-pyrazolo[1,5-a][1,3]diazepin-6-yl-4H-1,2,4-triazole-3-carboxamide]: the Ki was 82 nM. With `CN1C(=O)[C@@H](NC(=O)c2ncc3cnn(C4CCCC4)c3n2)COc2ccccc21` [Example 485, 1-cyclopentyl-N-[(3S)-5-methyl-4-oxo-2,3-dihydro-1,5-benzoxazepin-3-yl]pyrazolo[3,4-d]pyrimidine-6-carboxamide] the figure was 4.2 nM; with `Cc1cc2n(n1)CC[C@H](NC(=O)c1ncc3c(n1)C(C)(CC(F)(F)F)OC3)C(=O)N2C` (stereo partly drawn) [Example 487, 7-methyl-N-[(6S)-2,4-dimethyl-5-oxo-7,8-dihydro-6H-pyrazolo[1,5-a][1,3]diazepin-6-yl]-7-(2,2,2-trifluoroethyl)-5H-furo[3,4-d]pyrimidine-2-carboxamide], 370 nM; with `CCC(C)(O)c1ccnc(C(=O)N[C@H]2COc3ccccc3N(C)C2=O)c1` (stereo partly drawn) [Example 488, 4-(1-hydroxy-1-methyl-propyl)-N-[(3S)-5-methyl-4-oxo-2,3-dihydro-1,5-benzoxazepin-3-yl]pyridine-2-carboxamide], 1800 nM. For `CN1C(=O)[C@@H](NC(=O)c2cc3c(cn2)COC32CCCOC2)COc2ccccc21` (stereo partly drawn) [Example 489, N-[(3S)-5-methyl-4-oxo-2,3-dihydro-1,5-benzoxazepin-3-yl]spiro[3H-furo[3,4-c]pyridine-1,3′-tetrahydropyran]-6-carboxamide], the Ki was determined as 94 nM. For the compound `Cc1nn2c(c1C)N(C)C(=O)[C@@H](NC(=O)c1nnc(Cc3cccc(F)c3F)[nH]1)CC2` [Example 490, 5-[(2,3-difluorophenyl)methyl]-N-(6S)-2,3,4-trimethyl-5-oxo-7,8-dihydro-6H-pyrazolo[1,5-a][1,3]diazepin-6-yl-4H-1,2,4-triazole-3-carboxamide], the Ki turned out to be 40 nM. With `Cc1cc2n(n1)CC[C@H](NC(=O)c1ncn(C[C@H]3C[C@@H](C(F)(F)F)C3)n1)C(=O)N2C` [Example 492] the figure was 180 nM; with `CN1C(=O)[C@@H](NC(=O)c2ncn(C[C@H]3C[C@@H](C(F)(F)F)C3)n2)CCn2nccc21` [Example 493], 92 nM; with `CN1C(=O)[C@@H](NC(=O)c2ncn(C[C@H]3C[C@H](C(F)(F)F)C3)n2)CCn2nccc21` [Example 494], 110 nM. To `Cc1cc2n(n1)CC[C@H](NC(=O)c1ncn(CC3(C)CCCC3)n1)C(=O)N2C` [Example 495, 1-[(1-methylcyclopentyl)methyl]-N-(6S)-2,4-dimethyl-5-oxo-7,8-dihydro-6H-pyrazolo[1,5-a][1,3]diazepin-6-yl-1,2,4-triazole-3-carboxamide] belongs 130 nM; to `CN1C(=O)[C@@H](NC(=O)c2ncn(C[C@H]3C[C@@H](C)C3)n2)CCn2nccc21` [Example 496, N—((S)-4-methyl-5-oxo-5,6,7,8-tetrahydro-4H-pyrazolo[1,5-a][1,3]diazepin-6-yl)-1-(((1S,3R)-3-methylcyclobutyl)methyl)-1H-1,2,4-triazole-3-carboxamide], 52 nM.

In the case of `CN1C(=O)[C@@H](NC(=O)c2ncn(C[C@H]3C[C@H](C)C3)n2)CCn2nccc21` [Example 497, N—((S)-4-methyl-5-oxo-5,6,7,8-tetrahydro-4H-pyrazolo[1,5-a][1,3]diazepin-6-yl)-1-(((1R,3S)-3-methylcyclobutyl)methyl)-1H-1,2,4-triazole-3-carboxamide], the Ki was determined as 41 nM. With `Cc1cc2n(n1)CC[C@H](NC(=O)c1ncn(C[C@H]3C[C@H](C)C3)n1)C(=O)N2C` [Example 498, N—((S)-2,4-dimethyl-5-oxo-5,6,7,8-tetrahydro-4H-pyrazolo[1,5-a][1,3]diazepin-6-yl)-1-(((1S,3R)-3-methylcyclobutyl)methyl)-1H-1,2,4-triazole-3-carboxamide] the figure was 400 nM.

As for `Cc1cc2n(n1)CC[C@H](NC(=O)c1ncn(C[C@H]3C[C@@H](C)C3)n1)C(=O)N2C` [Example 499, N—((S)-2,4-dimethyl-5-oxo-5,6,7,8-tetrahydro-4H-pyrazolo[1,5-a][1,3]diazepin-6-yl)-1-(((1R,3S)-3-methylcyclobutyl)methyl)-1H-1,2,4-triazole-3-carboxamide], the Ki is 870 nM.

Turning to `CC[C@H]1C[C@@H](Cn2cnc(C(=O)N[C@H]3CCn4nc(C)cc4N(C)C3=O)n2)C1` [Example 500, N—((S)-2,4-dimethyl-5-oxo-5,6,7,8-tetrahydro-4H-pyrazolo[1,5-a][1,3]diazepin-6-yl)-1-(((1R,3R)-3-ethylcyclobutyl)methyl)-1H-1,2,4-triazole-3-carboxamide], the Ki was 36 nM.

Turning to `CC[C@H]1C[C@H](Cn2cnc(C(=O)N[C@H]3CCn4nc(C)cc4N(C)C3=O)n2)C1` [Example 501, N—((S)-2,4-dimethyl-5-oxo-5,6,7,8-tetrahydro-4H-pyrazolo[1,5-a][1,3]diazepin-6-yl)-1-(((1S,3S)-3-ethylcyclobutyl)methyl)-1H-1,2,4-triazole-3-carboxamide], the Ki was 67 nM.

Regarding `CC[C@H]1C[C@@H](Cn2cnc(C(=O)N[C@H]3CCn4nccc4N(C)C3=O)n2)C1` [Example 502, N—((S)-4-methyl-5-oxo-5,6,7,8-tetrahydro-4H-pyrazolo[1,5-a][1,3]diazepin-6-yl)-1-(((1R,3R)-3-ethylcyclobutyl)methyl)-1H-1,2,4-triazole-3-carboxamide], the Ki was found to be 27 nM.

For `CC[C@H]1C[C@H](Cn2cnc(C(=O)N[C@H]3CCn4nccc4N(C)C3=O)n2)C1` [Example 503, N—((S)-4-methyl-5-oxo-5,6,7,8-tetrahydro-4H-pyrazolo[1,5-a][1,3]diazepin-6-yl)-1-(((1S,3 S)-3-ethylcyclobutyl)methyl)-1H-1,2,4-triazole-3-carboxamide], the Ki was determined as 23 nM. As for `Cc1ncn2c1N(C)C(=O)[C@H](NC(=O)c1ncn(Cc3cc(F)ccc3F)n1)CC2` [Example 504, 1-[(2,5-difluorophenyl)methyl]-N-(3R)-1,9-dimethyl-2-oxo-4,5-dihydro-3H-imidazo[1,5-a][1,3]diazepin-3-yl-1,2,4-triazole-3-carboxamide], the Ki is 50 nM. To `Cc1ncn2c1N(C)C(=O)[C@H](NC(=O)c1ncn(Cc3ccccc3)n1)CC2` [Example 505, 1-benzyl-N-(3R)-1,9-dimethyl-2-oxo-4,5-dihydro-3H-imidazo[1,5-a][1,3]diazepin-3-yl-1,2,4-triazole-3-carboxamide] belongs 36 nM; to `CN1C(=O)[C@@H](NC(=O)c2ncn(Cc3cc(F)ccc3F)n2)CCn2ccnc21` [Example 506, 1-[(2,5-difluorophenyl)methyl]-N-[(7S)-9-methyl-8-oxo-6,7-dihydro-5H-imidazo[1,2-a][1,3]diazepin-7-yl]-1,2,4-triazole-3-carboxamide], 19 nM.
